Read-outs that look alike come from different tables or passages of the source. Residues, ends and D or L forms follow the SMILES beside them.
Columns and labels:
[1] = tested on: HBEC-5i cells; test: Translocation across in vitro BBB model (HBEC-5i monolayer, transwell); type: in vitro ADME, human; conditions: HBEC-5i monolayer on AF-coated PET transwell inserts (1.0 µm pores), 8 days, CF-peptide 5.0 µM in DMEM:F12 without phenol red added to apical side, 24 h, fluorescence, plate reader, mean ± SD, triplicates of three independent experiments
Procedure: Throughout 8 days, medium was changed every other day. On the day of the experiment, cells were washed twice with 1X PBS (137.0 mM NaCl, 2.7 mM KCl, 10.0 mM Na2HPO4, and 1.8 mM KH2PO4), and once with DMEM:F12 without phenol red. Then, CF-peptides (5.0 μM, in DMEM:F12 without phenol red) were added to the apical side of the in vitro BBB model and incubated for 24 h. Finally, samples from the apical and basolateral side were collected and fluorescence intensity analyzed using a Varioskan^TM LUX multimode microplate reader (Thermo Fisher, Spain). […] Experiments were performed in triplicates on different days using three independently grown cell cultures. Seeking experimental support for our hypothesis, we have synthesized and tested in vitro the activity of ten peptides (Table 1), selected among the 14 BBBpS entries by their lowest S score in an OLS ranking.

[2] = Cytotoxicity, CellTiter-Blue cell viability assay; type: cell-based; conditions: human; CellTiter-Blue, peptides 0.05–100.0 µM, 24 h; triplicates, three independent cultures; read-out: Cytotoxicity IC50 HEK-293
Procedure: (§1) Peptide cytotoxicity was determined using the CellTiter-Blue® cell viability assay, following a described protocol. Briefly, all cell lines were carefully harvested with trypsin–EDTA and seeded 10.000–20.000 cells/100 μL into 96-well clear flat-bottomed polystyrene plates (Corning, USA) for 24 h. After medium removal, cells were washed twice with 1X PBS, and 100 µL of previously diluted peptides (range from 0.05–100.0 µM) in the respective medium were added to cells. Then, after 24 h, cells were washed twice with 1X PBS and 20 µL of CellTiter-Blue® Reagent (diluted in 100 µL of medium) was added to each well and incubated for 3 h in culturing conditions. The fluorescence intensity was measured using Varioskan™ LUX multimode microplate reader.
(§2) IC50 values were determined using GraphPad Prism 7.0 software using a log(inhibitor) versus normalized response. Experiments were performed in triplicates on different days using three independently grown cell cultures.

[3] = Cytotoxicity, CellTiter-Blue cell viability assay; type: cell-based; conditions: human; CellTiter-Blue, peptides 0.05–100.0 µM, 24 h; triplicates, three independent cultures; read-out: Cytotoxicity IC50 Hs68
Procedure: as §1, §2

[4] = Cytotoxicity, CellTiter-Blue cell viability assay; type: cell-based; conditions: human; read-out: Cytotoxicity IC50 HBEC-5i
Procedure: as §1, §2

[5] = Analytical RP-HPLC retention time (used as indication of hydrophobicity); type: physicochemical; conditions: analytical reverse phase HPLC, UV chromatogram; free and CF-labelled peptides
[6] = Biodistribution of 67Ga-radiolabeled peptides; parameters: species or system mouse; conditions: in vivo, iv, 100 uCi, total radioactivity, i.v. tail vein, mean ± SD, n = 3; for tissue uptake at 1 h: female, CD1, mouse, 1 h post injection
Procedure: All animal experiments were performed in compliance with national and EU legislation for good practices on laboratory animal science. The animals were housed in a temperature and humidity-controlled environment with a 12 h light/12 h dark schedule. Biodistribution of radiolabeled peptides was performed on 7 weeks old CD1 female mice.
Animals were intravenously injected into the tail vein with 100 µL of a 25 µM saline solution of the ^67Ga-peptide with a radioactivity around 100 µCi. The mice were euthanized by cervical dislocation at 2 min and 1 h after injection. The dose administered and the radioactivity in the euthanized animals was measured using a dose calibrator (Carpintec CRC-15W, Ramsey, USA). The difference between the radioactivity in the injected and the euthanized animals was assumed to be due to excretion. Brain and tissues of interest without previous perfusion were dissected, washed, and weighed, and their radioactivity was measured using a γ counter (Hidex AMG, Hidex, Turku, Finland). The uptake in the brain and tissues of interest was calculated and expressed as a percentage of injected radioactivity dose per gram of tissue (% ID/g).

[7] = Cytotoxicity, CellTiter-Blue cell viability assay; type: cell-based; conditions: human; CellTiter-Blue, peptides 0.05–100.0 µM, 24 h; triplicates, three independent cultures
Procedure: as §1, §2

[8] = Cytotoxicity, CellTiter-Blue cell viability assay; type: cell-based; conditions: human; CellTiter-Blue, peptides 0.05–100.0 µM, 24 h; triplicates, three independent cultures; read-out: Cytotoxicity IC50 HeLa
Procedure: as §1, §2

CC[C@H](C)[C@H](NC(=O)CNC(=O)[C@H](CCCNC(=N)N)NC(=O)[C@H](Cc1ccc(O)cc1)NC(=O)[C@H](CS)NC(=O)[C@@H](NC(=O)[C@H](CCCNC(=N)N)NC(=O)[C@H](Cc1ccccc1)NC(=O)[C@H](CS)NC(=O)[C@H](Cc1c[nH]c2ccccc12)NC(=O)[C@@H](N)CCCCN)C(C)C)C(=O)N[C@@H](CS)C(=O)N[C@@H](Cc1ccc(O)cc1)C(=O)N[C@@H](CCCNC(=N)N)C(=O)N[C@@H](CCCNC(=N)N)C(=O)N[C@@H](CS)C(=O)N[C@@H](CCCNC(=N)N)C(N)=O [non-BBBpS_2] (H-KWCFRVCYRGICYRRCR-NH2)
Translocation (%) HBEC-5i [1]: 2.6 ± 1.2% | IC50 at 24 h [2]: 14.7 ± 1.4 µM | IC50 at 24 h [3]: 26.4 ± 2.9 µM | IC50 at 24 h [4]: 20.7 ± 1 µM | HPLC tR [5]: 6.81 min | tissue uptake at 1 h ([6]; brain without perfusion, CD1 female mice, γ counter, read-out: Tissue distribution, Brain (brain uptake)): 0.13 ± 0.03 %ID/g | tissue uptake at 1 h ([6]; liver, CD1 mice, read-out: Tissue distribution, Liver): 22.8 ± 10.1 %ID/g | tissue uptake at 2 min ([6]; mouse, brain without perfusion, 2 min post injection, CD1 female mice, 100 µL of 25 µM 67Ga-peptide, γ counter, read-out: Tissue distribution, Brain (brain uptake)): 0.27 ± 0.04 %ID/g | IC50 at 24 h [7]: 26.9 ± 3 µM | IC50 at 24 h [8]: 39.4 ± 1.8 µM

Reference: PMC11131246, “Molecular determinants for brain targeting by peptides: a meta-analysis approach with experimental validation” (Fluids and Barriers of the CNS, 2024)
